Results on one substance are retold here after patent publication US8691255B2, “Method of producing high alcohol content foaming compositions with silicone-based surfactants” (Deb Worldwide Healthcare Inc., priority 2005, dated 2014).

This series is described as follows: Foam evaluation of the prepared solutions: foam produced or not, and foam description. Type of series: physicochemical. The conditions noted are these: alone, 40% ethanol, 3% CAPB; compared with 60% v/v ethanol and less than 1.0% silicone-based surfactants. On the procedure: Examples 1 through 12 were prepared to illustrate the ability to produce alcohol-based disinfecting formulations which can be dispensed as foams using different surfactants and a solution of water and 50% ethanol. Examples 13 through 16 illustrate increasing concentrations of a silicone-based surfactant to produce foam with 40% ethanol. Examples 17 through 32 show increasing concentrations of ethanol with different silicone-based surfactants to produce foam. Examples 33 through 36 illustrate increasing concentrations of a silicone-based surfactant to produce acceptable foam at 62% ethanol. Examples 37 through 52 illustrate the ability to produce foam using different surfactants and a solution of 70% v/v Isopropanol. All parts and percentages are expressed by weight unless otherwise indicated.
The following examples were intended to evaluate the foaming ability of different groups of Silicon surfactants with different combinations of ethanol, n-propyl alcohol and Isopropyl alcohol. They were also designed to assess the effect in the after feel as well as in the foam quality of some emollients and humectants, lipids, and other cosmetic type desired ingredients to be used with a leave-on hand sanitizer product. […]
The solutions prepared, were evaluated as to whether foam was produced or not and if so, then the foam produced was described as follows: […]

Take Cocamidopropyl betaine: the foam results is recorded as “unable to produce as good results”.
